Biological target: T1, PD-1/PD-L1 (Homo sapiens, UniProt Q9NZQ7)
T1 construct: TVMV protease site linker (C); made in house; host or cells: HEK293T cells
Assay: PD-1/PD-L1 Homogenous Time-Resolved Fluorescence (HTRF) binding assay
Conditions: PD-L1-His 10 nM, PD-1-Ig 20 nM
Method in brief: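 Time-resolved FRET read-out using Eu-cryptate anti-Ig (1 nM final) and APC anti-His (20 nM final). Tagged extracellular domains were used in BSA/Tween-20-supplemented dPBS, with compound pre-incubated 15 min with PD-L1-His (10 nM) before PD-1-Ig (20 nM) was added for 15 min. Other human pairs: PD-L2-His 5 nM with PD-1-Ig 20 nM; PD-L1-Ig 10 nM with CD80-His 100 nM.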

T1 sequence (Q9NZQ7 18-239): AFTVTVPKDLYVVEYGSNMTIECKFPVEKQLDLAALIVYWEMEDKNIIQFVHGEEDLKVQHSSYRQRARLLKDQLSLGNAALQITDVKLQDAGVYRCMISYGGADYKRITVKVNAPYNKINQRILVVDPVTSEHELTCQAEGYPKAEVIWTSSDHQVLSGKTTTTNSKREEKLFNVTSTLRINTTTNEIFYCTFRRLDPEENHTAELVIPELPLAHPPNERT

SMILES	IC50 [nM]
Cc1c(COc2cc(OCc3cncc(C#N)c3)c(CNCc3nc4ccccc4n3Cc3ccccc3)cc2Cl)cccc1-c1cccc(OCCCN2CC[C@@H](O)C2)c1C [Example 2557, (R)-5-((2-((((1-benzyl-1H-benzo[d]imidazol-2-yl)methyl)amino)methyl)-4-chloro-5-((3′-(3-(3-hydroxypyrrolidin-1-yl)propoxy)-2,2′-dimethyl-[1,1′-biphenyl]-3-yl)methoxy)phenoxy)methyl)nicotinonitrile]	73.3
COCc1noc(CNCc2cc(Cl)c(OCc3cccc(-c4cccc(OCCCN5CC[C@@H](O)C5)c4C)c3C)cc2OCc2cncc(C#N)c2)n1 [Example 2558, (R)-5-((4-chloro-5-((3′-(3-(3-hydroxypyrrolidin-1-yl)propoxy)-2,2′-dimethyl-[1,1′-biphenyl]-3-yl)methoxy)-2-((((3-(methoxymethyl)-1,2,4-oxadiazol-5-yl)methyl)amino)methyl)phenoxy)methyl)nicotinonitrile]	6.4
Cc1c(COc2cc(OCc3cncc(C#N)c3)c(CN(C)Cc3ccnn3C)cc2Cl)cccc1-c1cccc(OCCCN2CC[C@@H](O)C2)c1C [Example 2559, (R)-5-((4-chloro-5-((3′-(3-(3-hydroxypyrrolidin-1-yl)propoxy)-2,2′-dimethyl-[1,1′-biphenyl]-3-yl)methoxy)-2-((methyl((1-methyl-1H-pyrazol-5-yl)methyl)amino)methyl)phenoxy)methyl)nicotinonitrile]	4.1
COCc1noc(CN(C)Cc2cc(Cl)c(OCc3cccc(-c4cccc(OCCCN5CC[C@@H](O)C5)c4C)c3C)cc2OCc2cncc(C#N)c2)n1 [Example 2560, (R)-5-((4-chloro-5-((3′-(3-(3-hydroxypyrrolidin-1-yl)propoxy)-2,2′-dimethyl-[1,1′-biphenyl]-3-yl)methoxy)-2-((((3-(methoxymethyl)-1,2,4-oxadiazol-5-yl)methyl)(methyl)amino)methyl)phenoxy)methyl)nicotinonitrile]	4.5
Cc1c(COc2cc(OCc3cncc(C#N)c3)c(CN(C)Cc3nc4ccccc4n3Cc3ccccc3)cc2Cl)cccc1-c1cccc(OCCCN2CC[C@@H](O)C2)c1C [Example 2561, (R)-5-((2-((((1-benzyl-1H-benzo[d]imidazol-2-yl)methyl)(methyl)amino)methyl)-4-chloro-5-((3′-(3-(3-hydroxypyrrolidin-1-yl)propoxy)-2,2′-dimethyl-[1,1′-biphenyl]-3-yl)methoxy)phenoxy)methyl)nicotinonitrile]	746
Cc1c(COc2cc(OCc3cncc(C#N)c3)c(CN(C)Cc3nn(C)c4ccccc34)cc2Cl)cccc1-c1cccc(OCCCN2CC[C@@H](O)C2)c1C [Example 2562, (R)-5-((4-chloro-5-((3′-(3-(3-hydroxypyrrolidin-1-yl)propoxy)-2,2′-dimethyl-[1,1′-biphenyl]-3-yl)methoxy)-2-((methyl((1-methyl-1H-indazol-3-yl)methyl)amino)methyl)phenoxy)methyl)nicotinonitrile]	9.5
Cc1c(COc2cc(OCc3cncc(C#N)c3)c(CNC3CCc4[nH]ncc4C3)cc2Cl)cccc1-c1cccc(OCCCN2CC[C@@H](O)C2)c1C (stereo partly drawn) [Example 2563, 5-((4-chloro-5-((3′-(3-((R)-3-hydroxypyrrolidin-1-yl)propoxy)-2,2′-dimethyl-[1,1′-biphenyl]-3-yl)methoxy)-2-(((4,5,6,7-tetrahydro-1H-indazol-5-yl)amino)methyl)phenoxy)methyl)nicotinonitrile]	0.5
Cc1c(COc2cc(OCc3cncc(C#N)c3)c(CN(C)C3CCc4[nH]ncc4C3)cc2Cl)cccc1-c1cccc(OCCCN2CC[C@@H](O)C2)c1C (stereo partly drawn) [Example 2564, 5-((4-chloro-5-((3′-(3-((R)-3-hydroxypyrrolidin-1-yl)propoxy)-2,2′-dimethyl-[1,1′-biphenyl]-3-yl)methoxy)-2-((methyl(4,5,6,7-tetrahydro-1H-indazol-5-yl)amino)methyl)phenoxy)methyl)nicotinonitrile]	2.7
Cc1c(COc2cc(OCc3cncc(C#N)c3)c(CNCc3ncc4ccccn34)cc2Cl)cccc1-c1cccc(OCCCN2CC[C@@H](O)C2)c1C [Example 2565, (R)-5-((4-chloro-5-((3′-(3-(3-hydroxypyrrolidin-1-yl)propoxy)-2,2′-dimethyl-[1,1′-biphenyl]-3-yl)methoxy)-2-(((imidazo[1,5-a]pyridin-3-ylmethyl)amino)methyl)phenoxy)methyl)nicotinonitrile]	4.7
Cc1c(COc2cc(OCc3cncc(C#N)c3)c(CNCc3ncc(-c4ccccc4)o3)cc2Cl)cccc1-c1cccc(OCCCN2CC[C@@H](O)C2)c1C [Example 2566, (R)-5-((4-chloro-5-((3′-(3-(3-hydroxypyrrolidin-1-yl)propoxy)-2,2′-dimethyl-[1,1′-biphenyl]-3-yl)methoxy)-2-((((5-phenyloxazol-2-yl)methyl)amino)methyl)phenoxy)methyl)nicotinonitrile]	48.6
Cc1c(COc2cc(OCc3cncc(C#N)c3)c(CN3CCc4c(cnn4-c4ccccc4)C3)cc2Cl)cccc1-c1cccc(OCCCN2CC[C@@H](O)C2)c1C [Example 2567, (R)-5-((4-chloro-5-((3′-(3-(3-hydroxypyrrolidin-1-yl)propoxy)-2,2′-dimethyl-[1,1′-biphenyl]-3-yl)methoxy)-2-((1-phenyl-1,4,6,7-tetrahydro-5H-pyrazolo[4,3-c]pyridin-5-yl)methyl)phenoxy)methyl)nicotinonitrile]	22.8
Cc1c(COc2cc(OCc3cncc(C#N)c3)c(CN3CCCC(c4cc[nH]n4)C3)cc2Cl)cccc1-c1cccc(OCCCN2CC[C@@H](O)C2)c1C (stereo partly drawn) [Example 2568, 5-((2-((3-(1H-pyrazol-3-yl)piperidin-1-yl)methyl)-4-chloro-5-((3′-(3-((R)-3-hydroxypyrrolidin-1-yl)propoxy)-2,2′-dimethyl-[1,1′-biphenyl]-3-yl)methoxy)phenoxy)methyl)nicotinonitrile]	2.5
Cc1c(COc2cc(OCc3cncc(C#N)c3)c(CN3CCc4cn[nH]c4C3)cc2Cl)cccc1-c1cccc(OCCCN2CC[C@@H](O)C2)c1C [Example 2569, (R)-5-((4-chloro-5-((3′-(3-(3-hydroxypyrrolidin-1-yl)propoxy)-2,2′-dimethyl-[1,1′-biphenyl]-3-yl)methoxy)-2-((1,4,5,7-tetrahydro-6H-pyrazolo[3,4-c]pyridin-6-yl)methyl)phenoxy)methyl)nicotinonitrile]	5.5
Cc1n[nH]c(C)c1CNCc1cc(Cl)c(OCc2cccc(-c3cccc(OCCCN4CC[C@@H](O)C4)c3C)c2C)cc1OCc1cncc(C#N)c1 [Example 2570, (R)-5-((4-chloro-2-((((3,5-dimethyl-1H-pyrazol-4-yl)methyl)amino)methyl)-5-((3′-(3-(3-hydroxypyrrolidin-1-yl)propoxy)-2,2′-dimethyl-[1,1′-biphenyl]-3-yl)methoxy)phenoxy)methyl)nicotinonitrile]	1.5
CCc1nc(CN(CCOC)Cc2cc(Cl)c(OCc3cccc(-c4cccc(OCCCN5CC[C@@H](O)C5)c4C)c3C)cc2OCc2cncc(C#N)c2)[nH]c1CC [Example 2571, (R)-5-((4-chloro-2-((((4,5-diethyl-1H-imidazol-2-yl)methyl)(2-methoxyethyl)amino)methyl)-5-((3′-(3-(3-hydroxypyrrolidin-1-yl)propoxy)-2,2′-dimethyl-[1,1′-biphenyl]-3-yl)methoxy)phenoxy)methyl)nicotinonitrile]	3.8
